Where “and” joins values, the source holds several entries; their conditions need not be identical. Identical values can stand only once. Like-named read-outs stand apart in the source and are kept apart here.
Experiments:
HDAC2 [1] = target: T1, HDAC2 (Homo sapiens (Human), UniProt Q92769); experiment: Caliper HDAC enzymatic endpoint assay, HDAC2; type: biochemical
Description: Substrate A was prepared as 2 mM in DMSO. Its final concentration in the assay for HDACs 1, 2, 3, 6 is 2 μM.
Below is the HDAC and Substrate concentration used in this assay.

HDAC1 = HDAC1 (Homo sapiens (Human), UniProt Q13547); experiment: Kinetics of the inhibition of HDAC1; settings: for T1/2: HDAC1 residence
Chain of HDAC1 (Q13547 whole entry): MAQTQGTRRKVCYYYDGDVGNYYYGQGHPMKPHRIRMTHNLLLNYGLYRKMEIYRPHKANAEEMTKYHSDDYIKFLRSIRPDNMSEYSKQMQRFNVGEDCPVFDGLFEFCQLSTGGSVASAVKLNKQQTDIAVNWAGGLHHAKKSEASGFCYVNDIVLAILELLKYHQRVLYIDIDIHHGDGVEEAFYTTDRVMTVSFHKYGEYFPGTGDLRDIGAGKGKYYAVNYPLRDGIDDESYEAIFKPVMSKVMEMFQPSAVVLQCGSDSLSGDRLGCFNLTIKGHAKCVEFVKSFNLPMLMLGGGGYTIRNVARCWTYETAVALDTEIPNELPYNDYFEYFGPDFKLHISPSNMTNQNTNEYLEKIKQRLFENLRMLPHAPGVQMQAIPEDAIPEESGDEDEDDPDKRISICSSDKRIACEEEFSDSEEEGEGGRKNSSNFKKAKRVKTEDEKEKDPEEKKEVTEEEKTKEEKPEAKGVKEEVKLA
Description: HDAC1 inactivation kinetic constant was determined by curve-fitting of the plot to a first-order rate equation.

INS-1E cells [2] = experiment: Insulin gene Ins1 and Ins2 expression by qPCR; type: cell-based, rat; settings: 10 μM, glucolipotoxicity, 24 h
Description: INS-1E cells (one million/well) were seeded in 6-well plates in 2 mL complete medium. After two days, medium was removed and cells were exposed to 2 mL medium/well with the indicated concentrations of palmitate, glucose, HDAC inhibitors and/or vehicle. RNA was purified (Qiagen) and cDNA synthesis performed done according to manufacturers' guidelines (Applied Biosystems) and real-time PCR performed using the SYBR green method (Applied Biosystems). Each cDNA sample in triplicate was subjected to two individual PCR amplifications either for the gene of interest or the reference gene β-actin. See table below for primer sequences. Compounds of the invention counteract glucolipotoxic reductions in insulin gene […] and […] expression. […] The gene expression in FIGS. 13A and 13B were analyzed by qPCR. […] Glucose-stimulated insulin secretion and total insulin content were assessed by ELISA. Data are presented as fold to CTRL+SEM, n=3-5, ns=not significant, *p<0.05, **p<0.01, ***p<0.001 vs. CTRL, #p<0.05, ##p<0.01, ###p<0.001 vs. respective treatment. ANOVA with Tukey- or Dunnet-corrected test, or Student's t-test (insulin content).

HDAC8 = HDAC8 (Homo sapiens (Human), UniProt Q9BY41); experiment: Caliper HDAC enzymatic endpoint assay, HDAC8; type: biochemical; settings: Table 2C; read-out: HDAC8 IC50 after 0 hr preincubation
Chain of HDAC8 (Q9BY41 whole entry): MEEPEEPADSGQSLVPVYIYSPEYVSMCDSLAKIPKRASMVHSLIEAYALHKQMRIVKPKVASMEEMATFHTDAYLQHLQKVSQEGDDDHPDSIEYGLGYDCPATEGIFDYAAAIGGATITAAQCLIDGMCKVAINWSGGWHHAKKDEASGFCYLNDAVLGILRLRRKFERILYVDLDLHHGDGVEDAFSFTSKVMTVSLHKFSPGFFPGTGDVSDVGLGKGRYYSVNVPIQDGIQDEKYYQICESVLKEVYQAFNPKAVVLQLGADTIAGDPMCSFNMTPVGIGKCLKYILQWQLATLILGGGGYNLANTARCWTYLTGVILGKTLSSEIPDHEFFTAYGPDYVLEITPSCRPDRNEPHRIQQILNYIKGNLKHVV
Description: The Caliper HDAC Assay Buffer (acronym HAB, 1 liter) was prepared as follows:
Substrate B was prepared as 2 mM in 100% DMSO. Its final concentration in the assay for HDACs 4, 5, 7, 8, 9 is 2 μM.
LBH was used as quench inhibitor to stop the reaction at the end point.
IC50 values are in micromolar.

INS-1E cells [3] = experiment: Insulin assay (glucose-stimulated insulin secretion and insulin content, ELISA); type: cell-based, rat; settings: 10 μM, palmitate and 25 mM glucose, 24 h
Description: INS-1E cells (20,000 cells/well) were seeded in 96-well plates in 100 uL complete medium. After overnight incubation media was removed and cells were exposed to 100 uL medium/well with the indicated concentrations of palmitate, glucose, HDAC inhibitors and/or vehicle. […] Cells were subsequently incubated with KRBH buffer containing 2 mM or 16 mM glucose for 1 hour. Supernatants were collected for measurement of insulin. For measuring insulin content, cells were washed in PBS and lysed using Passive Lysis Buffer. Insulin was measured with a rat insulin ELISA kit (Alpco). Total insulin content was normalized to total protein (Bradford assay). Each condition was assayed in biological duplicates. Specifically, HDAC3 inhibition is shown to preserve the glucose-induced insulin secretory function. […] FIGS. 13A to 13B are a series of bar graphs. […] Glucose-stimulated insulin secretion and total insulin content were assessed by ELISA. Data are presented as fold to CTRL+SEM, n=3-5, ns=not significant, *p<0.05, **p<0.01, ***p<0.001 vs. CTRL, #p<0.05, ##p<0.01, ###p<0.001 vs. respective treatment. ANOVA with Tukey- or Dunnet-corrected test, or Student's t-test (insulin content).

HDAC2 [4] = target: T1, HDAC2; experiment: Tm shift; type: binding
INS-1E cells [5] = experiment: Cytokine-induced beta-cell apoptosis, caspase-3 activity assay; type: cell-based, rat
Description: Compounds of the invention were evaluated for their ability to suppress cytokine-induced beta-cell apoptosis and palmitate and/or glucose-induced beta-cell apoptosis by inhibition of HDAC3. Assay protocols were as follows: Cell culture and reagents. […] Recombinant IL-1β, IFN-γ, and TNF-α were purchased from R&D Systems. Palmitate, D-glucose and fatty acids-free low endotoxin BSA were purchased from Sigma. Palmitate was solubilized in 90% ethanol, heated to 60° C. and used 1:100 dilution in media. Caspase-Glo 3/7 was from Promega and 3-(4,5-dimethylthiazol-2-yl)-2,5-diphenyltetrazolium bromide (MTT) was from Calbiochem. Antibodies for HDAC1, HDAC2, HDAC3, pJNK, JNK cleaved caspase-9 and secondary horseradish-peroxidase conjugated goat anti-mouse and anti-rabbit antibodies were from Cell Signaling. Antibody for beta-actin was from Sigma and antibody against CHOP (GADD153) from Abcam. HDAC inhibitors were purchased from Selleck Chemicals or synthesized in-house. Primers were from Integrated DNA Technologies, High Capacity cDNA RT kit and SYBR green master mix were purchased from Applied Biosystems. INS-1E cells were seeded at 5,000 cells/well using a Multidrop Combi (Thermo Labsystems) in white optical 384-well plates (Corning Life Sciences). After overnight incubation, medium was removed and 50 μL RPMI containing the treated compound, 1% FBS and either a combination of cytokines (10 ng/mL IL-1β, 50 ng/mL IFN-γ, 25 ng/mL TNF-α) or 0.5 mM sodium palmitate was added to every well. After two-day treatment, medium was removed and 20 μL Caspase-Glo 3/7 reagent was added. Luminescence was measured after a two-hour incubation using an Envision plate reader (PerkinElmer). […] The rat INS-1E cell line was simultaneously treated for 48 hours with a combination of pro-inflammatory cytokines IL-1β, IFN-γ, and TNF-α, and the indicated test compounds. […] Compound 9, a negative control, had no effect. […] FIGS. 9C and 9D show a dose-response analysis of HDAC inhibition in suppression of cytokine-induced beta-cell apoptosis. […] This could translate to a larger therapeutic window. […]

[6] = tested on: HDACs 1, 2, 3, 4, 5, 6, 7, 8, and 9; experiment: HDAC selectivity panel (Caliper), isoform selectivity; settings: from IC50 values
HDAC2 [7] = target: T1, HDAC2; experiment: Kinetics of the inhibition of HDAC2

T1 sequence (Q92769 whole entry): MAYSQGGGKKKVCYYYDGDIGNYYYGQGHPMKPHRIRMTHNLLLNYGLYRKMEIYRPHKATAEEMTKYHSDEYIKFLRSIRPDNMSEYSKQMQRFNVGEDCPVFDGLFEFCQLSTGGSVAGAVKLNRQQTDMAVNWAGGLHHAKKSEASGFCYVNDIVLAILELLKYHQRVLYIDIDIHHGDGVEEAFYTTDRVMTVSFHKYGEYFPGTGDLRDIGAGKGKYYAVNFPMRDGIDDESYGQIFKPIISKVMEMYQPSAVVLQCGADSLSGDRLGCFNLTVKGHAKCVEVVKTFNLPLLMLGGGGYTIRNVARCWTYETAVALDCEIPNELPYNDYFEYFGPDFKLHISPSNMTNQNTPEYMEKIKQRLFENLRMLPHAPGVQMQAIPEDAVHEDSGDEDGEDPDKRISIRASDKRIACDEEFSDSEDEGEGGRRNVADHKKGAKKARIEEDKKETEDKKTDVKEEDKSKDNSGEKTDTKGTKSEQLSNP

**Q.** With CC(=O)Nc1ccc(C(=O)Nc2ccc(F)cc2N)cc1 [Compound 1, 4-acetamido-N-(2-amino-4-fluorophenyl)benzamide] as the compound, how does the IC50 (HDAC2 [1]; read-out: HDAC2 IC50 3 h Prein, Table 2, 3 h preincubation) read?
**A.** 1420 nM

**Q.** What about the IC50 (HDAC2 [1]; read-out: HDAC2 IC50 3 h Preinc, Table 2A, 3 h preincubation) of the same compound?
**A.** 1420 nM

**Q.** And the IC50 (HDAC2 [1]; read-out: HDAC2 IC50 @3 hr, 3 hr preincubation)?
**A.** 1420 nM

**Q.** And the koff (HDAC1)?
**A.** ~0.0045 s⁻¹

**Q.** What about the Kon (HDAC1; HDAC1) of the same compound?
**A.** ~0.020 min^−1, uM^−1

**Q.** What about the koff (HDAC1; HDAC1) of the same compound?
**A.** ~0.0045 s⁻¹

**Q.** What about the “type of binding to HDAC1 (words)” value (HDAC1; HDAC1) of the same compound?
**A.** fast off inhibitor

**Q.** And the “type of binding to HDAC1 (words)” value (HDAC1; HDAC1, listed as compound 1)?
**A.** slow on/fast off rates

**Q.** What about the T1/2 (HDAC1) of the same compound?
**A.** ~2.5 min

**Q.** And the T1/2 (HDAC1; listed as compound 1)?
**A.** 2.5 min

**Q.** What about the Ki (HDAC1; Ki, HDAC1, inhibition kinetics) of the same compound?
**A.** ~14 µM and 14 µM

**Q.** What about the “insulin gene Ins1 expression” value (INS-1E cells [2]) of the same compound?
**A.** partially restoring insulin gene Ins1 expression

**Q.** What about the “insulin gene Ins2 expression” value (INS-1E cells [2]) of the same compound?
**A.** partially restoring insulin gene Ins2 expression

**Q.** And the IC50 (HDAC8)?
**A.** > 33 µM

**Q.** And the glucose-stimulated insulin release (INS-1E cells [3])?
**A.** restoring insulin release

**Q.** What about the insulin content (INS-1E cells [3]) of the same compound?
**A.** restoring insulin content

**Q.** What about the Tm shift (HDAC2 [4]) of the same compound?
**A.** 2.7 °C

**Q.** And the “suppression of cytokine-induced beta-cell apoptosis (caspase activity)” value (INS-1E cells [5]; IL-1β, IFN-γ, TNF-α, 48 hours, 5 μM compound)?
**A.** as effective at suppressing cyctokine-induced beta-cell apoptosis as CI-994

**Q.** What about the “suppression of caspase-3 activity, comparison of compounds” value (INS-1E cells [5]; cytokines, 0.1-10 μM, dose dependent) of the same compound?
**A.** more effective at suppressing caspase-3 activity

**Q.** What about the “HDAC isoform selectivity” value [6] of the same compound?
**A.** HDAC3 selective compound

**Q.** What about the Ki (HDAC2 [7]) of the same compound?
**A.** ~6.3 µM

**Q.** What about the koff (HDAC2 [7]) of the same compound?
**A.** 0.000867 s⁻¹

**Q.** And the Ki (HDAC2 [7]; HDAC2)?
**A.** 6.3 µM

**Q.** What about the Kon (HDAC2 [7]; HDAC2) of the same compound?
**A.** 0.0082 min^−1, uM^−1 and ~0.0082 min^−1, uM^−1

**Q.** And the koff (HDAC2 [7]; HDAC2)?
**A.** 0.000867 s⁻¹

**Q.** What about the “type of binding to HDAC2 (words)” value (HDAC2 [7]; HDAC2) of the same compound?
**A.** fast off inhibitor

**Q.** What about the “type of binding to HDAC2 (words)” value (HDAC2 [7]; HDAC2, listed as compound 1) of the same compound?
**A.** slow on/fast off rates

**Q.** What about the T1/2 (HDAC2 [7]; HDAC2 residence) of the same compound?
**A.** 13 min

From US11377423B2, “Inhibitors of histone deacetylase” (The Broad Institute, Inc., priority 2012, dated 2022)
